This is an account of results in ChEMBL document CHEMBL3632547, “Discovery of 3,5-substituted 6-azaindazoles as potent pan-Pim inhibitors” (Bioorg Med Chem Lett, 2015).

What is called Ki is a dissociation constant, usually derived from enzyme kinetics or from competition with a known ligand. A high value points to weaker binding. In general, IC50 refers to the concentration at which inhibition is half-maximal. A higher IC50 goes with lower potency. One may read the clearance as the volume of plasma or blood freed of the substance per unit of time. High values mean a high capacity for elimination, low ones a low capacity for elimination. A word on the bioavailability: it is the share of a dose that reaches the circulation, judged against a reference dose that is usually intravenous. Low readings indicate little systemic uptake, high ones much systemic uptake. As usually defined, the Papp A→B is how fast a substance crosses the layer from the apical side. As usually defined, the efflux ratio is a quotient of directional permeabilities that is used to spot active efflux.

Data set [1] deals with Serine/threonine-protein kinase pim-2 (Homo sapiens, UniProt Q9P1W9).
Chain of Serine/threonine-protein kinase pim-2 (Q9P1W9 whole entry): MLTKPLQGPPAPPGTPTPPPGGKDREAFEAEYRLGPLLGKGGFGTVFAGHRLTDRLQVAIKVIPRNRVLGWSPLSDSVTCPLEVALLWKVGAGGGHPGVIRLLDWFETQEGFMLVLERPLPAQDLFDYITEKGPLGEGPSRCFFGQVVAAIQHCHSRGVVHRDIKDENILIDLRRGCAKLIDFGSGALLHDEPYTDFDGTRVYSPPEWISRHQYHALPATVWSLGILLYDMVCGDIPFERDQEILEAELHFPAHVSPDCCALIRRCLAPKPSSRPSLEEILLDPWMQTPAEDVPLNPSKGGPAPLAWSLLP
Data set [2] concerns the target Serine/threonine-protein kinase pim-3 (Homo sapiens, UniProt Q86V86).
In data set [3] the target is Serine/threonine-protein kinase pim-1 (Homo sapiens, UniProt P11309).
Chain of Serine/threonine-protein kinase pim-1 (P11309 whole entry): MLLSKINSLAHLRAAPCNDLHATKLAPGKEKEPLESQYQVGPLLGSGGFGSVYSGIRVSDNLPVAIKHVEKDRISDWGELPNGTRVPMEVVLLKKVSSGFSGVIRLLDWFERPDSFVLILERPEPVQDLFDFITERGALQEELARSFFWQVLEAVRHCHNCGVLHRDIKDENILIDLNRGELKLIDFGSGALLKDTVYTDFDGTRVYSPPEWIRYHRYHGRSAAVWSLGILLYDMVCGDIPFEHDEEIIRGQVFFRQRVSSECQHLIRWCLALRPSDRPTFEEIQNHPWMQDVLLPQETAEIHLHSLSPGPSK
Data set [4] can be described thus: Cytotoxicity against wild type interleukin-3 dependent mouse BA/F3 cells after 72 hrs by CellTiter-Glo assay. Type of data set: functional, cell-based. The settings on record: BaF3, 72 h. On the technique in general: ATP-based viability assays read luminescence as a measure of living cells.
Data set [5] is described as follows: Cytotoxicity against interleukin-3 independent mouse BA/F3 cells expressing PIM1 after 72 hrs by CellTiter-Glo assay. Type of data set: functional, cell-based. The settings on record: BaF3, 72 h.
A further data set has as its system BaF3. Description: Ratio of IC50 for wild type interleukin-3 dependent mouse BA/F3 cells to IC50 for interleukin-3 independent mouse BA/F3 cells expressing PIM1. Type of data set: functional.
Data set [6] in a line: Cytotoxicity against human MM1S cells after 72 hrs by CellTiter-Glo assay. Type of data set: functional, cell-based. The settings on record: MM1.S.
A short description of data set [7]: Plasma clearance in rat. Type of data set: ADME, organism-based.
The nature of data set [8]: Oral bioavailability in rat. The format is ADME, organism-based. The settings on record: in vivo.
Data set [9] can be described thus: Plasma protein binding in rat. The format is ADME, cell-free. The settings on record: read-out: PPB (converted).
Data set [10] can be described thus: Intrinsic clearance from rat liver microsomes. The format is ADME. The settings on record: read-out: CLH. On the technique in general: Liver microsomes are vesicles of endoplasmic reticulum, rich in cytochrome P450 enzymes.
A short description of data set [11]: Apparent permeability from apical to basolateral side in MDCK cells. Type of data set: ADME, cell-based, Canis lupus familiaris. The settings on record: dog.
Data set [12] is described as follows: Efflux ratio of apparent permeability from basolateral to apical over apical to basolateral side in MDCK cells. The settings on record: dog. Type of data set: ADME, cell-based, Canis lupus familiaris.

As for `Cn1cc(-c2cc3c(-c4cccc(O[C@@H]5CCCNC5)n4)n[nH]c3cn2)cn1`, the figures for the Ki in [1] and in data set [2] were 6.2 nM and 0.16 nM, respectively.

In the case of `Cn1cc(-c2cc3c(-c4cccc(N5CCC[C@@H](N)C5)n4)n[nH]c3cn2)cn1`, the Ki turned out to be 0.72 nM in data set [1] and 0.021 nM in data set [2].

On to `Cn1cc(-c2cc3c(-c4cccc(N5CC[C@@H](N)C5)n4)n[nH]c3cn2)cn1`, for which the Ki in data set [1] stood at 0.43 nM; in [2], 0.015 nM; in [3], 0.035 nM.

Consider `Cn1cc(-c2cc3c(-c4cccc(N5CCC[C@H](N)C5)n4)n[nH]c3cn2)cn1`, for which the Ki is 0.26 nM in data set [1] and 0.015 nM in data set [2].

In the case of `Cn1cc(-c2cc3c(-c4cccc(N5CCC[C@@H](N)C5)c4)n[nH]c3cn2)cn1`, the Ki in [1] worked out at 1.25 nM; in [2], 0.29 nM.

Turning to `Cc1ccc(-c2n[nH]c3cnc(-c4cnn(C)c4)cc23)nc1N1CCC[C@H](N)C1`, the Ki in data set [1] amounted to 0.088 nM; in [2], 0.006 nM.

As for `CCn1cc(-c2cc3c(-c4cccc(N5CCNCC5)n4)n[nH]c3cn2)cn1`, the Ki is 0.473 nM in [1] and 0.041 nM in data set [2]. Further, the values for the IC50 in data set [4], in data set [5] and in [6] were 5400 nM, 77 nM and 640 nM, respectively. Moreover, the “Ratio IC50” value with BaF3 is reported as 70. For the same compound, the clearance in data set [7] was found to be 14 mL/min/kg. This compound had a bioavailability in data set [8] of 1%. For the same compound, in [9], the fraction unbound was 0.022. Also, the CLint scaled in data set [10] came out at 150 mL/min/kg. Also, in [11], the apparent permeability from apical to basolateral (Papp A→B) was determined as 0.5 ×10⁻⁶ cm/s. Besides, the efflux ratio in [12] was found to be 51.

Turning to `c1cc(-c2n[nH]c3cnc(C4CCCO4)cc23)nc(N2CCNCC2)c1` (stereo unspecified), the figures for the Ki in data set [1] and in data set [3] were 82 nM and 8.5 nM, respectively.

Take `c1cc(-c2n[nH]c3cnc(C4CCCOC4)cc23)nc(N2CCNCC2)c1` (stereo unspecified): the results for the Ki in [1] and in [2] were 26 nM and 1 nM, respectively.

Regarding `O=C1CN(c2cc3c(-c4cccc(N5CCNCC5)n4)n[nH]c3cn2)CCN1`, the Ki in data set [1] is 17 nM; in data set [2], 1.4 nM.

For `c1cc(-c2n[nH]c3cnc(N4CCOCC4)cc23)nc(N2CCNCC2)c1`, the Ki in data set [1] was determined as 14 nM; in data set [2] it was 4.4 nM.

As to `Cn1cc(-c2cc3c(-c4ccccn4)n[nH]c3cn2)cn1`, the Ki came out at 48 nM in data set [1] and 3.7 nM in data set [2].

Turning to `Cn1cc(-c2cc3c(-c4cccc(N5CCCNCC5)n4)n[nH]c3cn2)cn1`, the figures for the Ki in [1], in data set [2] and in data set [3] were 0.17 nM, 0.013 nM and 0.02 nM, respectively.

On to `Cn1cc(-c2cc3c(-c4cccc(C5CCNCC5)n4)n[nH]c3cn2)cn1`, for which the Ki in data set [1] was determined as 2.2 nM; in data set [2] it was 0.12 nM.

On to `CCn1cncc(-c2cc3c(-c4cccc(N5CCNCC5)n4)n[nH]c3cn2)c1=O`, for which the figures for the Ki in data set [1] and in [2] were 0.145 nM and 0.07 nM, respectively.

With `Cn1cc(-c2cc3c(-c4cccc(N5CCNCC5)n4)n[nH]c3cn2)cn1`, the values for the Ki in data set [1] and in [2] were 0.58 nM and 0.017 nM, respectively.

As to `N#CCn1cc(-c2cc3c(-c4cccc(N5CCNCC5)n4)n[nH]c3cn2)cn1`, the results for the Ki in data set [1] and in [2] were 0.127 nM and 0.013 nM, respectively.

For the compound `c1cc(-c2n[nH]c3cnc(-c4cnn(CC5CC5)c4)cc23)nc(N2CCNCC2)c1`, the Ki in [1] turned out to be 0.253 nM; in data set [2] it was 0.016 nM.

For the compound `c1cc(-c2n[nH]c3cnc(-n4ccnc4)cc23)nc(N2CCNCC2)c1`, the Ki in data set [1] worked out at 5.4 nM; in data set [2], 0.65 nM.

`NC(=O)Cc1cc2c(-c3cccc(N4CCNCC4)n3)n[nH]c2cn1`: the Ki in [1] is 1100 nM; in data set [2], 115 nM.

For the compound `NC(=O)Nc1cc2c(-c3cccc(N4CCNCC4)n3)n[nH]c2cn1`, the results for the Ki in data set [1] and in [2] were 1.1 nM and 0.68 nM, respectively.

For the compound `CN1C(=O)CN(c2cc3c(-c4cccc(N5CCNCC5)n4)n[nH]c3cn2)C1=O`, the Ki in [1] was found to be 33 nM; in data set [2], 3.3 nM.

On to `Fc1ccccc1-c1n[nH]c2cnc(-c3cnccc3O[C@@H]3CCCNC3)cc12`, for which the Ki was determined as 1.7 nM in data set [1], 0.11 nM in data set [2] and 3.4 nM in data set [3].

On to `Cc1n[nH]c2cnc(-c3cncc(N4CCC(N)CC4)n3)cc12`, for which the Ki in data set [1] was 170 nM; in [2], 9 nM; in data set [3], 6 nM.

For the compound `NC1CCN(c2cncc(-c3cc4c(-c5ccccc5F)n[nH]c4cn3)n2)CC1`, the Ki in data set [1] stood at 3 nM; in [2], 0.1 nM; in [3], 0.1 nM.

`NCCNc1cccc(-c2n[nH]c3cnc(-c4cccnc4)cc23)n1`: the figures for the Ki in data set [1], in [2] and in data set [3] were 3 nM, 0.2 nM and 0.3 nM, respectively.

With `c1cncc(-c2cc3c(-c4cccc(N5CCNCC5)n4)n[nH]c3cn2)c1`, the values for the Ki in [1], in [2] and in data set [3] were 0.5 nM, 0.01 nM and 0.04 nM, respectively.

For `Cc1cncc(-c2cc3c(-c4cccc(N5CCNCC5)n4)n[nH]c3cn2)c1`, the Ki in [1] worked out at 0.3 nM; in data set [2], 0.037 nM.

With `Cc1cncc(-c2cc3c(-c4cccc(N5CCNCC5)n4)n[nH]c3cn2)n1`, the Ki was 0.049 nM in [1] and 0.01 nM in [2].

As for `c1cncc(-c2cc3cn[nH]c3cn2)c1`, the Ki in data set [1] stood at 6000 nM; in [2], 1800 nM; in data set [3] it was 1300 nM.

As for `O=C(Nc1cn[nH]c1)c1cccnc1`, the figures for the Ki in data set [1], in data set [2] and in data set [3] were 15000 nM, 2900 nM and 3300 nM, respectively.

Regarding `Cc1n[nH]c2cnc(-c3cccnc3)cc12`, the figures for the Ki in data set [1], in data set [2] and in [3] were 800 nM, 300 nM and 200 nM, respectively.

Consider `Cc1c[nH]c2cnc(-c3cccnc3)cc12`, for which the Ki in data set [1] was 3900 nM; in [2] it was 1500 nM; in [3] it was 800 nM.

Consider `Cc1n[nH]c2cnc(-c3cn[nH]c3)cc12`, for which the Ki in [1] was found to be 900 nM; in data set [2], 400 nM.

Regarding `Cc1n[nH]c2ccc(-c3cn[nH]c3)cc12`, the inhibition constant Ki is 2700 nM in data set [1], 3100 nM in data set [2] and 3200 nM in [3].

As for `c1ccc(-c2n[nH]c3cnc(-c4cccnc4)cc23)cc1`, the Ki was 50 nM in data set [1], 5 nM in data set [2] and 10 nM in data set [3].

As to `c1ccc(-c2n[nH]c3cnc(-c4cccnc4)cc23)nc1`, the Ki in data set [1] was found to be 70 nM; in [3], 10 nM.

Consider `Cc1n[nH]c2cnc(-c3cnccc3N3CCC[C@H](N)C3)cc12`, for which the results for the Ki in [1] and in data set [2] were 8300 nM and 5000 nM, respectively.

Turning to `N[C@H]1CCCN(c2ccncc2-c2cc3c(-c4ccccc4F)n[nH]c3cn2)C1`, the Ki came to 35 nM in data set [1] and 6 nM in data set [2].
